Data as given in PMC12040169 (PLOS Biology, 2025).

Experiment: in vitro
Conditions: human, hela cells, % viability

| Compound | viability at 28.5 h, 10 µM |
| --- | --- |
| Cc1cn(S(=O)(=O)N(C)C)nc1-c1ccccc1 [CBK005210] | 89.9% |
| C/C(=N\N=C1\N=C(O)C(CC(=O)NCc2ccccc2)S1)c1ccco1 (centres unmarked) [CBK263698] | 89.9% |
| O=[N+]([O-])c1c(N2CCN(CCO)CC2)ccc2nonc12 [CBK264397] | 96% |
| COc1ccc2[nH]cc(CCNC(=O)c3ccc(C)nc3N3CCOCC3)c2c1 [CBK106203] | 108% |
| CC(C)(C)OC(=O)N1CCC(CNS(=O)(=O)c2cccs2)CC1 [CBK086019] | 100% |
| CCOC(=O)N1CCN(C(C(=O)O)c2c[nH]c3ccc(C)cc23)CC1 (centres unmarked) [CBK286632] | 93.1% |
| CCN1CCN(Cc2nc3c(c(=O)n(C)c(=O)n3C)n2Cc2c(F)cccc2Cl)CC1 [CBK269236] | 108% |
| Cc1cccc(NC(=O)CN2C(=O)S/C(=C\c3cc(C)n(-c4cc(C)ccn4)c3C)C2=O)c1 [CBK264671] | 93.4% |
| O=C(Nc1cc(Cl)ccc1O)c1ccc(C(=O)Nc2cc(Cl)ccc2O)cc1 [CBK266784] | 94.9% |
| Cc1ccc(C(=O)O)cc1NC(=O)c1cccc(C(=O)Nc2cc(C(=O)O)ccc2C)c1 [CBK262797] | 97.5% |
| C=C(C)CN1CCN(C(=O)c2ccnc3ccc(Cl)cc23)CC1 [CBK282617] | 111% |
| c1ccc(C(NCc2nnc(-c3ccco3)o2)C2CCC2)cc1 (centres unmarked) [CBK305818] | 84.7% |
| CCCC1CCCN(Cc2nnnn2-c2ccc(S(C)(=O)=O)cc2)C1 (centres unmarked) [CBK304142] | 89.2% |
| CCC(C(=O)Nc1ccccc1C(=O)Nc1c(Cl)cccc1Cl)c1ccccc1 (centres unmarked) [CBK266068] | 98.4% |
| Cc1cccc(C(=O)NNC(=O)COc2cccc3ccccc23)c1O [CBK262993] | 87.7% |
| O=S(=O)(/N=C(/Nc1nccs1)c1ccccc1)c1cccs1 [CBK268709] | 83.8% |
| Nc1cccc(-c2nc(-c3cccnc3)cnc2N)c1 [CBK063906] | 95.3% |
| O=c1[nH]c2ccc(NC(=S)NCc3ccccc3)cc2[nH]1 [CBK296099] | 93.8% |
| c1cc2c(cc1-c1nn3cnnc3s1)OCCO2 [CBK287866] | 88.1% |
| O=C(Nc1sc2c(c1C(=O)N1CCOCC1)CCCCC2)c1cccs1 [CBK307099] | 105% |
| O=c1n(CC2CCCCC2)c2ccccc2n1S(=O)(=O)CCc1cccc2ccccc12 [CBK106525] | 101% |
| Nc1ncc(-c2cccc(O)c2)nc1N1CCOCC1 [CBK063376] | 100% |

| Compound | viability at 28.5 h, 10 µM |
| --- | --- |
| O=S1(=O)CCC(c2nnc(C3(c4ccc(Br)cc4)CCOCC3)o2)C1 (centres unmarked) [CBK305513] | 115% |
| CC(=O)NCCCSCc1cn2cccc(C)c2n1 [CBK304809] | 98.5% |
| Cc1cnn(CCC(=O)NC(Cc2ccsc2)c2nccs2)c1 (centres unmarked) [CBK284664] | 88.4% |
| O=C(O)CSc1nnc(C2COc3ccccc3O2)n1-c1ccccc1 (centres unmarked) [CBK263832] | 104% |
| Cc1ccc2oc(=O)cc(N/N=C(\Cl)C(N)=S)c2c1 [CBK022357] | 85.8% |
| COc1ccc(Cl)cc1Nc1nc(N)nc(CC(=O)CSc2ccc(C)cc2)n1 [CBK265200] | 90.2% |
| O=C1c2ccccc2C(=O)N1CCc1nn2c(-c3cccnc3)nnc2s1 [CBK269793] | 97.9% |
| Cc1nn(Cc2nnc(-c3cccs3)o2)c(C)c1Br [CBK010809] | 87.7% |
| CC(C)(C)OC(=O)NC1CCc2ccccc2N(Cc2ccccc2)C1=O (centres unmarked) [CBK013366] | 97.1% |
| CCN(CC)C(=O)C1CCCN(C(=O)NCCc2ccc(OC)c(OC)c2)C1 (centres unmarked) [CBK156134] | 97.7% |
| CNS(=O)(=O)c1cc(C(=O)NC2CCCc3ccccc32)n(C)c1 (centres unmarked) [CBK305048] | 103% |
| CCC(CC)Oc1ccc(C2(C)NC(=O)NC2=O)cc1 (centres unmarked) [CBK288409] | 96.4% |
| O=C(NC1CCS(=O)(=O)C1)c1cc2ccc(OC(F)(F)F)cc2[nH]1 (centres unmarked) [CBK305754] | 92.4% |
| Cc1ccc(N(CCc2cc(C(F)(F)F)cc(C(F)(F)F)c2)C(=O)CN)cc1NC(=O)CN(C)C [CBK003630T] | 84.5% |
| O=C(O)C1C2C=CC(O2)C1C(=O)NCCCc1ccccc1 (centres unmarked) [CBK286982] | 93.3% |
| Cc1cc(C)n(CCC(=O)N2CCCC2c2nc3ccccc3[nH]2)n1 (centres unmarked) [CBK283664] | 106% |
| Cc1sc2ncn(CC(=O)NC3CCOc4ccccc43)c(=O)c2c1C (centres unmarked) [CBK304562] | 86.3% |
| Cc1nn(C)c(C)c1NC(=O)CSc1nnc(-c2cccc(Br)c2)n1-c1ccccc1 [CBK267430] | 103% |
| O=C(O)c1cnc(Cl)c(Br)c1 [CBK026874] | 83.7% |
| O=C(CN1CCC(Cc2ccccc2)CC1)Nc1ccc(F)c(Cl)c1 [CBK126387] | 92.4% |
| CC1=NN(c2ccccc2)C(=O)/C1=C1/C(=O)Nc2c(C)cc(Br)cc21 [CBK263950] | 92% |
| C/C(=N\Nc1nc(C(=O)O)cs1)c1ccccc1 [CBK261633] | 88.7% |

| Compound | viability at 28.5 h, 10 µM |
| --- | --- |
| CCN1CC2(CCCN(Cc3nnc(-c4cccnc4)o3)C2)CCC1=O (centres unmarked) [CBK306881] | 86.4% |
| c1csc(CN2CCC(c3cc4nccnc4[nH]3)CC2)c1 [CBK281520] | 88.9% |
| O=C(O)CCSc1nc(-c2ccccc2)c(-c2ccccc2)[nH]1 [CBK264228] | 109% |
| O=C(Nc1ccc(S(=O)(=O)N2CCCCC2)cc1)c1ccc(CN2CCOCC2)cc1 [CBK264002] | 111% |
| Cc1ccsc1CN(CCCO)Cc1cn(C)nc1C [CBK282983] | 95.7% |
| CC(CC(=O)O)CC(=O)Nc1ccccc1C(=O)O (centres unmarked) [CBK265671] | 99.2% |
| Cc1c(C(=O)N(C)CC(C)C)nnn1-c1ccc2ncccc2c1 [CBK305161] | 102% |
| CNCc1cc(Br)c(OCC(=O)Nc2ccccc2OC)c(OC)c1 [CBK107772] | 106% |
| O=C(c1ccc(-c2cnc3[nH]c(=O)n(Cc4ccccn4)c3n2)cc1)N1CCOCC1 [CBK064413] | 110% |
| Clc1ccc(-c2ccc(N3CCN(CCN4CCCC4)CC3)nc2)cc1 [CBK037623] | 97.8% |
| COc1cc([N+](=O)[O-])ccc1NC(=O)C1CC(Cl)=CCC1C(=O)O (centres unmarked) [CBK264956] | 88.8% |
| CN1[C@@H](CCC(=O)N2CCN(c3ccccn3)CC2)CNC(=O)[C@H]2NCC[C@H]21 [CBK289031] | 95.2% |
| COc1ccccc1-c1ccccc1CC1(C(=O)NCc2cccc(F)c2)CCOCC1 [CBK286426] | 96.9% |
| O=C1CC(c2ccccc2)CC(=O)N1c1nnn[nH]1 [CBK291154] | 85.5% |
| O=C(c1ccno1)N1Cc2ccccc2C1 [CBK200327] | 97% |
| CNCC1CCCN1S(=O)(=O)c1ccc(OCc2ncnn2C)cc1 (centres unmarked) [CBK304500] | 90% |
| O=C(c1ccc(CCN2CCCC2)nc1)N1CCN(CCc2ccccc2)CC1 [CBK200227] | 91.6% |
| FC(F)(F)c1ccc(-c2nnc(C3CC3)o2)cc1 [CBK021992] | 86.7% |
| Cc1ccnc(NS(=O)(=O)c2ccc(NC(=O)CSc3ccc(Cl)cc3)cc2)n1 [CBK265854] | 98.9% |
| COc1ccc(Cc2nc(-c3ccccc3)c3ccccc3n2)cc1F [CBK291176] | 80.2% |
| Cc1ccc(-c2cnc(SCC(N)=O)n2-c2ccccc2)cc1 [CBK287757] | 113% |
| O=C(Nc1cc(Oc2cccnc2)cc([N+](=O)[O-])c1)c1sc2ccccc2c1Cl [CBK300485] | 106% |

| Compound | viability at 28.5 h, 10 µM |
| --- | --- |
| O=C(c1cc(C(F)(F)F)cc(C(F)(F)F)c1)N1CCC(O)(c2ccc(Cl)cc2)CC1 [CBK061972] | 96.9% |
| CC(C)C(=O)Nc1cc2ccccc2c(-c2cc(F)cc(F)c2)n1 [CBK085775] | 95.4% |
| Cc1ccccc1-c1cncc(C2CCN(C(=O)CCOc3ccccc3)CC2)n1 [CBK286154] | 99% |
| O=C(O)c1cccc2c1C(=O)N(Cc1ccncc1)C2 [CBK291146] | 80.6% |
| CN(C(=O)CN1CCOC(Cn2cccn2)C1)C1(C#N)CCCCC1 (centres unmarked) [CBK305335] | 97.3% |
| O=C1CCC(=O)N1CCOc1nccnc1OC1CCN(Cc2ccc(Cl)cc2)CC1 [CBK084338] | 108% |
| COc1ccc2nc(NC(=O)c3ccc(Br)s3)sc2c1 [CBK287316] | 92.8% |
| O=C1CCCC[C@]2(CN(Cc3ccccc3)C[C@H]2c2ccccn2)N1 [CBK283340] | 82.6% |
| Cc1cccc(-c2nc(C3CCCNC3)n3ccccc23)c1 (centres unmarked) [CBK035528] | 92.3% |
| CCOC(=O)c1c(NC(=O)CSc2ccc(F)cc2)sc2c1CCCC2 [CBK266506] | 95.9% |
| CS(=O)(=O)c1ccc(CNC(=O)c2ccccc2Nc2cccc(C(F)(F)F)c2)cc1 [CBK149580] | 92% |
| OC1CCN(Cc2c([C@H]3CCCO3)[nH]c3ncccc23)CC1 [CBK286301] | 110% |
| NC(=O)CN(CC(N)=O)S(=O)(=O)c1ccccc1 [CBK262490] | 85.4% |
| COc1cc(CNc2cccc(-c3ccsc3)n2)cc(OC)c1 [CBK037592] | 97.8% |
| COc1ccccc1-c1cnc(N)c(NCc2ccccc2)n1 [CBK063357] | 94.3% |
| O=S(=O)(NCCc1c[nH]c2ccccc12)c1cccc2nsnc12 [CBK057456] | 83.4% |
| CN1CCN(C(=O)c2ccc(-c3cccc(C(F)(F)F)c3)nc2N2CCOCC2)CC1 [CBK106194] | 94% |
| CN1CCN(C(c2ccc(O)cc2)c2nnnn2Cc2ccccc2)CC1 (centres unmarked) [CBK084719] | 94.8% |
| O=C(NCC1c2ccccc2CCN1C(=O)CN1C(=O)c2ccccc2C1=O)C1CCCCC1 (centres unmarked) [CBK262582] | 90.6% |
| CCOc1cc(S(=O)(=O)NCc2ccncc2)ccc1Br [CBK270147] | 82.3% |
| COC(=O)c1ccccc1NC(=O)CN(C)S(=O)(=O)c1c(C)cc(C)cc1C [CBK266241] | 110% |
| CCOC(=O)C1CSCCN1C(=O)c1cnn(-c2ccc(Br)cc2)c1C (centres unmarked) [CBK304550] | 102% |

Same assay, conditions: human, hela cells, % viability, bulk resorufin, single well

| Compound | viability at 28.5 h, 10 µM |
| --- | --- |
| NC(=O)C1=CN([C@@H]2O[C@H](CO)[C@H](O)C2O)C2N=CN=C(N)C12 (some centres unmarked) [CBK201209] | 0.996% |
